Reference: patent US11696881B2, “Oral care compositions comprising hops beta acids and fluoride ions” (The Procter & Gamble Company, priority 2019, dated 2023)

Tested on: plaque biofilm grown from pooled human saliva (3-day biofilm)
Experiment: in vitro plaque glycolysis model (iPGRM): acid production and acid inhibition
Assay type: cell-based
Protocol: Acid production and acid inhibition were determined with the in vitro plaque glycolysis model (iPGRM). The purpose of this technique is to provide a simple and quick method for determining if compounds have an influence on the metabolic pathways that plaque microorganisms utilize to produce toxins that adversely affect gingival health.
The in vitro plaque glycolysis model (iPGRM) is a technique in which plaque is grown from human saliva and treated with various agents to determine anti-glycolytic activity of treatments. When bacteria convert sugar into energy with the help of enzymes, acids are formed. These acids demineralize and damage the dental enamel. […]
A plaque biofilm was grown on glass rods from fresh pooled human saliva and Trypticase Soy Broth (TSB) at 37° C. over […] by dipping glass rods into and out of media in a reciprocating motion. […] The pH of the media solutions was then measured to determine the amount of glycolysis inhibition relative to a negative control.
On Day 1, new glass rods (5 mm×90 mm) were polished approximately 25 mm from the untapered end on a lathe with silicon carbide paper of 240, 320, 400, and 600 grit used sequentially. […] After polishing, rods were stored until ready to run test. […]

**Q.** For `[H]/N=C(\N/C(=N/[H])NCCCCCCNC(=N)NC(=N)Nc1ccc(Cl)cc1)Nc1ccc(Cl)cc1` [1% Chlorhexidine, Chlorhexidine], which “Acid Production (ΔpH) Mean” value (Table 2, 2 min treatment with 1:5 slurry in water) is on record?
**A.** 0.30 ΔpH

**Q.** What about the “Mean Acid Inhibition (%) Mean” value (Table 2, relative to negative control Crest Cavity Protection) of the same compound?
**A.** 80.77%
